# In patent US9695155B2, “Herbicidal substituted pyrimidinyloxy benzene compounds” (E. I. DU PONT DE NEMOURS AND COMPANY, priority 2013, dated 2017):
# Tests used:
# green foxtail = assay: Test E preemergence; format: in vivo, Setaria viridis; conditions: for Foxtail, Green plant response rating: scale 0 to 100 (0 no effect, 100 complete control); for Plant response rating, Foxtail, Green: scale 0 to 100, 0 no effect, 100 complete control
# How it was run: (§1)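 Compound in a non-phytotoxic solvent mixture with surfactant was applied preemergence to seeds in silt loam soil, or postemergence to plants 2 to 18 cm tall grown in peat-based potting medium. Plants were kept in a greenhouse for 14 to 21 days, then rated visually against untreated controls on a 0 (no effect) to 100 (complete control) scale.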
# corn = assay: Test E preemergence; format: in vivo, Zea mays; conditions: for Corn plant response rating: scale 0 to 100 (0 no effect, 100 complete control); for Plant response rating, Corn: scale 0 to 100, 0 no effect, 100 complete control
# How it was run: as §1
# Brazilian crabgrass = assay: Test E preemergence; format: in vivo, Digitaria horizontalis; conditions: for Crabgrass, Brazil plant response rating: scale 0 to 100 (0 no effect, 100 complete control); for Plant response rating, Crabgrass, Brazil: scale 0 to 100, 0 no effect, 100 complete control
# How it was run: as §1
# kochia = assay: Test E preemergence; format: in vivo, Kochia scoparia; conditions: for Kochia plant response rating: scale 0 to 100 (0 no effect, 100 complete control); for Plant response rating, Kochia: scale 0 to 100, 0 no effect, 100 complete control
# How it was run: as §1
# large (Lg) crabgrass = assay: Test E preemergence; format: in vivo, Digitaria sanguinalis; conditions: for Crabgrass, Large plant response rating: scale 0 to 100 (0 no effect, 100 complete control); for Plant response rating, Crabgrass, Large: scale 0 to 100, 0 no effect, 100 complete control
# How it was run: as §1
# velvetleaf = assay: Test E preemergence; format: in vivo, Abutilon theophrasti; conditions: for Velvetleaf plant response rating: scale 0 to 100 (0 no effect, 100 complete control); for Plant response rating, Velvetleaf: scale 0 to 100, 0 no effect, 100 complete control
# How it was run: as §1
# wild poinsettia = assay: Test E preemergence; format: in vivo, Euphorbia heterophylla; conditions: for Poinsettia, Wild plant response rating: scale 0 to 100 (0 no effect, 100 complete control); for Plant response rating, Poinsettia, Wild: scale 0 to 100, 0 no effect, 100 complete control
# How it was run: as §1
# barnyardgrass = assay: Test C flooded paddy test; format: in vivo, Echinochloa crus-galli; conditions: Flood, scale 0 to 100 (0 no effect, 100 complete control), 13 to 15 days
# How it was run: (§2)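 Pots were flooded to 3 cm above the soil surface at treatment, compound applied directly to the paddy water, and that depth held throughout. Plants were kept in a greenhouse for 13 to 15 days, then visually rated against untreated controls.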
# ragweed = assay: Test A postemergence; format: in vivo, Ambrosia elatior; conditions: 0 to 100 scale where 0 is no effect and 100 is complete control
# How it was run: (§3)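 Visual 0–100 rating (100 = complete control) taken about 10 d post-treatment relative to untreated checks. Preemergence: directed soil spray on sown loam/sand pots. Postemergence: seedlings 2–10 cm, 1–2 leaf. Non-phytotoxic solvent formulation with surfactant.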
# sandbur = assay: Test E preemergence; format: in vivo, Cenchrus echinatus; conditions: for Sandbur plant response rating: scale 0 to 100 (0 no effect, 100 complete control); for Plant response rating, Sandbur: scale 0 to 100, 0 no effect, 100 complete control
# How it was run: as §1
# ducksalad = assay: Test C flooded paddy test; format: in vivo, Heteranthera limosa; conditions: Flood, scale 0 to 100 (0 no effect, 100 complete control), 13 to 15 days
# How it was run: as §2
# yellow nutsedge = assay: Test E preemergence; format: in vivo, Cyperus esculentus; conditions: for Nutsedge, Yellow plant response rating: scale 0 to 100 (0 no effect, 100 complete control); for Plant response rating, Nutsedge, Yellow: scale 0 to 100, 0 no effect, 100 complete control
# How it was run: as §1
# rice = assay: Test C flooded paddy test; format: in vivo, Oryza sativa; conditions: Flood, scale 0 to 100 (0 no effect, 100 complete control), 13 to 15 days
# How it was run: as §2
# lambsquarters = assay: Test E preemergence; format: in vivo, Chenopodium album; conditions: for Lambsquarters plant response rating: scale 0 to 100 (0 no effect, 100 complete control); for Plant response rating, Lambsquarters: scale 0 to 100, 0 no effect, 100 complete control
# How it was run: as §1
# blackgrass = assay: Test A postemergence; format: in vivo, Alopecurus myosuroides; conditions: 0 to 100 scale where 0 is no effect and 100 is complete control
# How it was run: as §3
structure (smiles),measurement,setting,value
CCOc1cnn(-c2c(C#N)cccc2Oc2ncc(F)cn2)c1 [Compound 89],"Foxtail, Green plant response rating",green foxtail; 31 g ai/ha,0
same,"Foxtail, Green plant response rating",green foxtail; 62 g ai/ha,35
same,"Plant response rating, Foxtail, Green",green foxtail; 125 g ai/ha,65
same,"Plant response rating, Foxtail, Green",green foxtail; 250 g ai/ha,85
same,Corn plant response rating,corn; 31 g ai/ha,0
same,Corn plant response rating,corn; 62 g ai/ha,0
same,"Plant response rating, Corn",corn; 125 g ai/ha,30
same,"Plant response rating, Corn",corn; 250 g ai/ha,70
same,"Crabgrass, Brazil plant response rating",Brazilian crabgrass; 31 g ai/ha,20
same,"Crabgrass, Brazil plant response rating",Brazilian crabgrass; 62 g ai/ha,90
same,"Plant response rating, Crabgrass, Brazil",Brazilian crabgrass; 125 g ai/ha,100
same,"Plant response rating, Crabgrass, Brazil",Brazilian crabgrass; 250 g ai/ha,100
same,Kochia plant response rating,kochia; 31 g ai/ha,60
same,Kochia plant response rating,kochia; 62 g ai/ha,75
same,"Plant response rating, Kochia",kochia; 125 g ai/ha,100
same,"Plant response rating, Kochia",kochia; 250 g ai/ha,100
same,"Crabgrass, Large plant response rating",large (Lg) crabgrass; 31 g ai/ha,35
same,"Crabgrass, Large plant response rating",large (Lg) crabgrass; 62 g ai/ha,85
same,"Plant response rating, Crabgrass, Large",large (Lg) crabgrass; 125 g ai/ha,100
same,"Plant response rating, Crabgrass, Large",large (Lg) crabgrass; 250 g ai/ha,100
same,Velvetleaf plant response rating,velvetleaf; 31 g ai/ha,20
same,Velvetleaf plant response rating,velvetleaf; 62 g ai/ha,65
same,"Plant response rating, Velvetleaf",velvetleaf; 125 g ai/ha,90
same,"Plant response rating, Velvetleaf",velvetleaf; 250 g ai/ha,100
same,"Poinsettia, Wild plant response rating",wild poinsettia; 31 g ai/ha,20
same,"Poinsettia, Wild plant response rating",wild poinsettia; 62 g ai/ha,40
same,"Plant response rating, Poinsettia, Wild",wild poinsettia; 125 g ai/ha,70
same,"Plant response rating, Poinsettia, Wild",wild poinsettia; 250 g ai/ha,85
same,"Plant response rating, Barnyardgrass",barnyardgrass; 62 g ai/ha,0
same,"Plant response rating, Barnyardgrass",barnyardgrass; 125 g ai/ha,15
same,"Plant response rating, Barnyardgrass",barnyardgrass; 250 g ai/ha,20
same,"Plant response rating, Ragweed",ragweed; 125 g ai/ha,30
same,"Plant response rating, Ragweed",ragweed; 500 g ai/ha,90
same,Sandbur plant response rating,sandbur; 31 g ai/ha,0
same,Sandbur plant response rating,sandbur; 62 g ai/ha,10
same,"Plant response rating, Sandbur",sandbur; 125 g ai/ha,10
same,"Plant response rating, Sandbur",sandbur; 250 g ai/ha,20
same,"Plant response rating, Ducksalad",ducksalad; 62 g ai/ha,0
same,"Plant response rating, Ducksalad",ducksalad; 125 g ai/ha,65
same,"Plant response rating, Ducksalad",ducksalad; 250 g ai/ha,80
same,"Nutsedge, Yellow plant response rating",yellow nutsedge; 31 g ai/ha,0
same,"Nutsedge, Yellow plant response rating",yellow nutsedge; 62 g ai/ha,0
same,"Plant response rating, Nutsedge, Yellow",yellow nutsedge; 125 g ai/ha,20
same,"Plant response rating, Nutsedge, Yellow",yellow nutsedge; 250 g ai/ha,35
same,"Plant response rating, Rice",rice; 62 g ai/ha,0
same,"Plant response rating, Rice",rice; 125 g ai/ha,0
same,"Plant response rating, Rice",rice; 250 g ai/ha,0
same,Lambsquarters plant response rating,lambsquarters; 31 g ai/ha,20
same,Lambsquarters plant response rating,lambsquarters; 62 g ai/ha,5
same,"Plant response rating, Lambsquarters",lambsquarters; 125 g ai/ha,95
same,"Plant response rating, Lambsquarters",lambsquarters; 250 g ai/ha,100
same,"Plant response rating, Blackgrass",blackgrass; 125 g ai/ha,40
same,"Plant response rating, Blackgrass",blackgrass; 500 g ai/ha,90
